Consider 50 molecules from patent US6984649B1, “Pyridine derivatives” (Bayer Aktiengesellschaft, priority 2000, dated 2006).

Each structure is given as a SMILES string. pIC50: −log10 of the molar value.

What is called pIC50 is −log10 of the IC50, conventionally taken in molar units.

In the experiment the target is T1, human IKK-β (Homo sapiens, UniProt O14920).
T1 construct: A cDNA fragment encoding human IKK-β open reading frame was generated by PCR; His tag (from pcDNA3.1/His C); made in house; host or cells: Sf21 insect cells (baculovirus); substrate made in E. coli
T1 sequence (O14920 1-756): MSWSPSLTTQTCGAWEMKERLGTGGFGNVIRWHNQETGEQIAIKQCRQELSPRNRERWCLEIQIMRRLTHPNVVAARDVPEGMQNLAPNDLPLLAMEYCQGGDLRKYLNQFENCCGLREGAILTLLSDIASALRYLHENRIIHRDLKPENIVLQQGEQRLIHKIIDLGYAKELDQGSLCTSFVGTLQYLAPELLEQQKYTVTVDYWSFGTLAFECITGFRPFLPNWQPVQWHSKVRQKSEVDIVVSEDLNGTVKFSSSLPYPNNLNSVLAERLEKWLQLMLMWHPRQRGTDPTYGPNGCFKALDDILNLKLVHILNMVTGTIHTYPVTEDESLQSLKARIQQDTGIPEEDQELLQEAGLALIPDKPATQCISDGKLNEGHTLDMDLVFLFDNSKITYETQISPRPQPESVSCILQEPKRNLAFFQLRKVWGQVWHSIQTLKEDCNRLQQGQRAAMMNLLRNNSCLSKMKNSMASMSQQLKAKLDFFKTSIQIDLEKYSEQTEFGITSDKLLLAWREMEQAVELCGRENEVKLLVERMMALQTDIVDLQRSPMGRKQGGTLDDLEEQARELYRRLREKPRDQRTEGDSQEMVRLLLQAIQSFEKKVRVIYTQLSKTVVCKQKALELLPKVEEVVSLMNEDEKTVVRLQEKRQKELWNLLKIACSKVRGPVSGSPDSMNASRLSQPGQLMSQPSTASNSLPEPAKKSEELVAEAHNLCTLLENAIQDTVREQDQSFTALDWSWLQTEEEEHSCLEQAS
As to the kind of experiment: IKK-β kinase inhibitory assay. The class given is biochemical. The following applies: compounds as yielded by solid phase synthesis, purity about 40 to 90%, read-out: In vitro activity grade (In vitro IC50). An outline of the steps:
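Radiometric read-out: streptavidin capture of 33P-labelled bio-GST-IκBα(1-54), 0.2 μM, after a 2 h room-temperature reaction started with ATP/[γ-33P]ATP. Enzyme was recombinant His-tagged human IKK-β expressed in Sf21 insect cells, used at 0.6 μg/ml in Tris-HCl pH 7.6/MgCl2 kinase buffer. Compounds added in 2.5% DMSO.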
For `CC(=O)NCCNc1cc(-c2c(O)cccc2OCC2CC2)nc(N)c1C#N` [Example 34-19], the pIC50 was over 6.30.

In the case of `CCCOc1cccc(O)c1-c1cc(C2CCCNC2)c2c(n1)NC(=O)CC2` (centres unmarked) [Example 27-02], the pIC50 was over 6.30. The figure for `O=C(c1cc2c(C3CCCNC3)cc(-c3c(O)cccc3OCC3CC3)nc2[nH]c1=O)N1CCNCC1` (centres unmarked) [Example 31-09] is over 6.30; for `C[C@H](NC(=O)c1cc2c(C3CCCNC3)cc(-c3c(O)cccc3OCC3CC3)nc2[nH]c1=O)C(=O)O` (some centres unmarked) [Example 31-16] it is over 6.30. For the molecule `O=C1CCc2c(C3CCNCC3)cc(-c3c(O)cccc3OCC3CC3)nc2N1` [Example 27-04], the pIC50 is over 6.30. With `CCCC(CCC)NC(=O)c1cc2c(C3CCCNC3)cc(-c3c(O)cccc3OCC3CC3)nc2[nH]c1=O` (centres unmarked) [Example 31-26], the negative logarithm of the IC50 (pIC50) was over 6.30. Consider `CN(C)CCNC(=O)c1cc2c(C3CCCNC3)cc(-c3c(O)cccc3OCC3CC3)nc2[nH]c1=O` (centres unmarked) [Example 31-11], for which the pIC50 is over 6.30. As to `O=C(NC1CCCCCC1)c1cc2c(C3CCCNC3)cc(-c3c(O)cccc3OCC3CC3)nc2[nH]c1=O` (centres unmarked) [Example 31-24], the pIC50 is over 6.30. For `O=C(c1cc2c(C3CCCNC3)cc(-c3c(O)cccc3OCC3CC3)nc2[nH]c1=O)N1CCCC1` (centres unmarked) [Example 31-05], the pIC50 was over 6.30. With `O=C(NCC1CCCCC1)c1cc2c(C3CCCNC3)cc(-c3c(O)cccc3OCC3CC3)nc2[nH]c1=O` (centres unmarked) [Example 31-19], the pIC50 was over 6.30.

As for `O=C(c1cc2c(C3CCCNC3)cc(-c3c(O)cccc3OCC3CC3)nc2[nH]c1=O)N1CCOCC1` (centres unmarked) [Example 31-08], the negative logarithm of the IC50 (pIC50) is over 6.30. Turning to `C[C@H](NC(=O)c1cc2c(C3CCCNC3)cc(-c3c(O)cccc3OCC3CC3)nc2[nH]c1=O)c1ccccc1` (some centres unmarked) [Example 31-14], the negative-log IC50 (pIC50) is over 6.30.

In the case of `CCC(CC)NC(=O)c1cc2c(C3CCCNC3)cc(-c3c(O)cccc3OCC3CC3)nc2[nH]c1=O` (centres unmarked) [Example 31-25], the negative-log IC50 (pIC50) is over 6.30.

Take `O=c1[nH]c2nc(-c3c(O)cccc3OCC3CC3)cc(C3CCCNC3)c2cc1[N+](=O)[O-]` (centres unmarked) [Example 25-05]: the pIC50 was over 6.30. For `O=C(NCC(F)(F)F)c1cc2c(C3CCCNC3)cc(-c3c(O)cccc3OCC3CC3)nc2[nH]c1=O` (centres unmarked) [Example 31-27], the negative-log IC50 (pIC50) was over 6.30. In the case of `O=C(NCc1ccccc1)c1cc2c(C3CCCNC3)cc(-c3c(O)cccc3OCC3CC3)nc2[nH]c1=O` (centres unmarked) [Example 31-06], the pIC50 was over 6.30. Regarding `COCCNC(=O)c1cc2c(C3CCCNC3)cc(-c3c(O)cccc3OCC3CC3)nc2[nH]c1=O` (centres unmarked) [Example 31-07], the negative-log IC50 (pIC50) is over 6.30. With `N#Cc1c(NCCNCc2ccccc2)cc(-c2ccccc2O)nc1N` [Example 34-13], the pIC50 is over 6.30. Turning to `O=C(NCCO)c1cc2c(C3CCCNC3)cc(-c3c(O)cccc3OCC3CC3)nc2[nH]c1=O` (centres unmarked) [Example 31-20], the pIC50 was over 6.30. The figure for `CCOC(=O)C1Cc2c(C3CCCNC3)cc(-c3c(O)cccc3OCC3CC3)nc2NC1=O` (centres unmarked) [Example 26-03] is over 6.30; for `CNCCNc1cc(-c2ccccc2O)nc(N)c1C#N` [Example 34-12] it is over 6.30; for `CCCOc1cccc(O)c1-c1cc(C2CCNCC2)c2c(n1)NC(=O)CC2` [Example 27-05] it is over 6.30. Turning to `N#Cc1c(N2CCNCC2)cc(-c2ccccc2O)nc1N` [Example 34-09], the negative logarithm of the IC50 (pIC50) was over 6.30. With `CC(C)NC(=O)c1cc2c(C3CCCNC3)cc(-c3c(O)cccc3OCC3CC3)nc2[nH]c1=O` (centres unmarked) [Example 31-10], the pIC50 is over 6.30. The figure for `CNC(=O)c1cc2c(C3CCCNC3)cc(-c3c(O)cccc3OCC3CC3)nc2[nH]c1=O` (centres unmarked) [Example 31-03] is over 6.30.

As to `N#Cc1c(NCCN)cc(-c2ccccc2O)nc1N` [Example 34-10], the negative logarithm of the IC50 (pIC50) was over 6.30. Take `O=c1[nH]c2nc(-c3c(O)cccc3OCC3CC3)cc(C3CCCNC3)c2cc1S(=O)(=O)c1ccccc1` (centres unmarked) [Example 25-07]: the negative-log IC50 (pIC50) was over 6.30. For `NC(=O)C1Cc2c(C3CCCNC3)cc(-c3c(O)cccc3OCC3CC3)nc2NC1=O` (centres unmarked) [Example 26-05], the negative logarithm of the IC50 (pIC50) is over 6.30. On to `CCOC(=O)C1Cc2c(C3CCNCC3)cc(-c3c(O)cccc3OCC3CC3)nc2NC1=O` (centres unmarked) [Example 26-04], for which the pIC50 is over 6.30. With `O=C(NC1CCCCC1)c1cc2c(C3CCCNC3)cc(-c3c(O)cccc3OCC3CC3)nc2[nH]c1=O` (centres unmarked) [Example 31-18], the pIC50 is over 6.30.

Turning to `N#Cc1c(NCCNC(=O)c2ccccc2)cc(-c2c(O)cccc2OCC2CC2)nc1N` [Example 34-16], the pIC50 was over 6.30. The figure for `C[C@@H](NC(=O)c1cc2c(C3CCCNC3)cc(-c3c(O)cccc3OCC3CC3)nc2[nH]c1=O)c1ccccc1` (some centres unmarked) [Example 31-15] is over 6.30. For `O=C(NC1CC1)c1cc2c(C3CCCNC3)cc(-c3c(O)cccc3OCC3CC3)nc2[nH]c1=O` (centres unmarked) [Example 31-21], the negative logarithm of the IC50 (pIC50) was over 6.30.

Take `O=C(NC1CCCC1)c1cc2c(C3CCCNC3)cc(-c3c(O)cccc3OCC3CC3)nc2[nH]c1=O` (centres unmarked) [Example 31-23]: the pIC50 is over 6.30.

With `NC(=O)c1cc2c(C3CCCNC3)cc(-c3c(O)cccc3OCC3CC3)nc2[nH]c1=O` (centres unmarked) [Example 25-08], the pIC50 is over 6.30. `N#Cc1c(NCCNS(=O)(=O)c2ccccc2)cc(-c2c(O)cccc2OCC2CC2)nc1N` [Example 34-17]: the negative logarithm of the IC50 (pIC50) was over 6.30.

`N#Cc1c(N2CCCNCC2)cc(-c2ccccc2O)nc1N` [Example 34-08]: the negative-log IC50 (pIC50) was 5.70 to 6.30. Consider `O=C(NCCc1ccccc1)c1cc2c(C3CCCNC3)cc(-c3c(O)cccc3OCC3CC3)nc2[nH]c1=O` (centres unmarked) [Example 31-17], for which the negative logarithm of the IC50 (pIC50) was over 6.30. `O=C(NC1Cc2ccccc2C1)c1cc2c(C3CCCNC3)cc(-c3c(O)cccc3OCC3CC3)nc2[nH]c1=O` (centres unmarked) [Example 31-12]: the negative-log IC50 (pIC50) is over 6.30. As to `O=C(NC1CCC1)c1cc2c(C3CCCNC3)cc(-c3c(O)cccc3OCC3CC3)nc2[nH]c1=O` (centres unmarked) [Example 31-22], the pIC50 was over 6.30. For the molecule `CCCOc1cccc(O)c1-c1cc(C2CCCNC2)c2c(n1)NC(=O)C(C(=O)OCC)C2` (centres unmarked) [Example 26-06], the negative logarithm of the IC50 (pIC50) is over 6.30. Turning to `CN(C)C(=O)c1cc2c(C3CCCNC3)cc(-c3c(O)cccc3OCC3CC3)nc2[nH]c1=O` (centres unmarked) [Example 31-04], the negative logarithm of the IC50 (pIC50) was over 6.30.

For the molecule `N#Cc1c(NC2CCNCC2)cc(-c2ccccc2O)nc1N` [Example 34-07], the negative-log IC50 (pIC50) is over 6.30. As for `N#Cc1c(NCCNCc2ccccc2)cc(-c2c(O)cccc2OCC2CC2)nc1N` [Example 34-15], the negative-log IC50 (pIC50) is over 6.30. With `O=C(NC(c1ccccc1)c1ccccc1)c1cc2c(C3CCCNC3)cc(-c3c(O)cccc3OCC3CC3)nc2[nH]c1=O` (centres unmarked) [Example 31-13], the pIC50 is over 6.30. Regarding `N#Cc1cc2c(C3CCCNC3)cc(-c3c(O)cccc3OCC3CC3)nc2[nH]c1=O` (centres unmarked) [Example 25-06], the pIC50 is over 6.30.

As to `N#Cc1c(NCCNC(=O)Nc2ccccc2)cc(-c2c(O)cccc2OCC2CC2)nc1N` [Example 34-18], the pIC50 is over 6.30. For `N#Cc1c(N2CCCC(C(N)=O)C2)cc(-c2ccccc2O)nc1N` (centres unmarked) [Example 34-06], the negative logarithm of the IC50 (pIC50) is 5.00 to 5.70. For `N#Cc1c(NCCCN)cc(-c2ccccc2O)nc1N` [Example 34-11], the negative logarithm of the IC50 (pIC50) is over 6.30.

With `O=C1CCc2c(C3CCCNC3)cc(-c3c(O)cccc3OCC3CC3)nc2N1` (centres unmarked) [Example 27-03, 7-[2-(cyclopropylmethoxy)-6-hydroxyphenyl]-5-(3-piperidinyl)-3,4-dihydro-1,8-naphthyridin-2(1H)-one], the negative-log IC50 (pIC50) was over 6.30.
